Literature values, collected in article PMC11938273 (Journal of Chemical Information and Modeling, 2025).
*1 amine or outer side, *2 acyl side, *3 side chain or, on linkers, in order; H or OH if unused. Where a SMILES comes first, the peptide text is derived from it. Bridges are numbered along the chain shown (N, C = ends). Roman numbers before positions name the chains, in order. [ ]: non-standard residue; d: D form. Actinocin(9to1) = Cc1c2oc3c(C)ccc(C(=O)[*:1])c3nc-2c(C(=O)[*:2])c(N)c1=O; NMeV = CN[C@H](C(=O)O)C(C)C; Sar = CNCC(=O)O

Details: in vivo; cited from earlier work

SMILES	CNS status
CC[C@H]1OC(=O)[C@H](C)[C@@H](O[C@H]2C[C@@](C)(OC)[C@@H](O)[C@H](C)O2)[C@H](C)[C@@H](O[C@@H]2O[C@H](C)C[C@H](N(C)C)[C@H]2O)[C@](C)(OC)C[C@@H](C)C(=O)[C@H](C)[C@@H](O)[C@]1(C)O (mixture of isomers) [Clarithromycin, rac-(3R,4S,5S,6R,7R,9R,11R,12R,13S,14R)-6-(((2S,3R,4S,6R)-4-(dimethylamino)-3-hydroxy-6-methyltetrahydro-2H-pyran-2-yl)oxy)-14-ethyl-12,13-dihydroxy-4-(((2R,4R,5S,6S)-5-hydroxy-4-methoxy-4,6-dimethyltetrahydro-2H-pyran-2-yl)oxy)-7-methoxy-3,5,7,9,11,13-hexamethyloxacyclotetradecane-2,10-dione]	Negative
CCC(C)CCCC(=O)N[C@H](CCN)C(=O)N[C@@H](C(=O)N[C@H](CCN)C(=O)N[C@@H]1CCNC(=O)[C@H]([C@H](C)O)NC(=O)[C@@H](CCN)NC(=O)[C@@H](CCN)NC(=O)[C@@H](CC(C)C)NC(=O)[C@H](CC(C)C)NC(=O)[C@@H](CCN)NC1=O)[C@H](C)O (mixture of isomers) [Colistin, rac-N-((R)-4-amino-1-(((2R,3S)-1-(((R)-4-amino-1-oxo-1-(((3S,6R,9R,12R,15S,18R,21R)-6,9,18-tris(2-aminoethyl)-3-((S)-1-hydroxyethyl)-12,15-diisobutyl-2,5,8,11,14,17,20-heptaoxo-1,4,7,10,13,16,19-heptaazacyclotricosan-21-yl)amino)butan-2-yl)amino)-3-hydroxy-1-oxobutan-2-yl)amino)-1-oxobutan-2-yl)-5-methylheptanamide]	Negative
C[C@@H](CN1CC(=O)NC(=O)C1)N1CC(=O)NC(=O)C1 (racemic) [Dexrazoxane, rac-(R)-4,4'-(propane-1,2-diyl)bis(piperazine-2,6-dione)]	Negative
C[C@H](N)[C@H](O)c1cccc(O)c1 (racemic) [Metaraminol, rac-3-((1R,2S)-2-amino-1-hydroxypropyl)phenol]	Negative
CC(C)CCCCC(=O)N[C@@H](CCN)C(=O)N[C@H](C(=O)N[C@@H](CCN)C(=O)N[C@H]1CCNC(=O)[C@H]([C@@H](C)O)NC(=O)[C@H](CCN)NC(=O)[C@H](CCN)NC(=O)[C@H](CC(C)C)NC(=O)[C@@H](Cc2ccccc2)NC(=O)[C@H](CCN)NC1=O)[C@@H](C)O (racemic) [Polymyxin B2, rac-N-((R)-4-amino-1-(((2R,3S)-1-(((R)-4-amino-1-oxo-1-(((3R,6R,9R,12R,15S,18R,21R)-6,9,18-tris(2-aminoethyl)-15-benzyl-3-((S)-1-hydroxyethyl)-12-isobutyl-2,5,8,11,14,17,20-heptaoxo-1,4,7,10,13,16,19-heptaazacyclotricosan-21-yl)amino)butan-2-yl)amino)-3-hydroxy-1-oxobutan-2-yl)amino)-1-oxobutan-2-yl)-6-methylheptanamide]	Negative
COC(=O)[C@H](c1ccccc1)[C@H]1CCCCN1 (racemic) [Ritalin, rac-methyl (R)-2-phenyl-2-((R)-piperidin-2-yl)acetate]	Positive
COC(=O)[C@H]1[C@@H](c2ccc(I)cc2)C[C@@H]2CC[C@H]1N2CCCF (racemic) [beta-CIT-FP, rac-methyl(1R,2S,3S,5S)-8-(3-fluoropropyl)-3-(4-iodophenyl)-8-azabicyclo[3.2.1]octane-2-carboxylate]	Positive
C[N+]1(CC2CC2)CC[C@]23c4c5ccc(O)c4O[C@H]2C(=O)CC[C@@]3(O)C1C5 (stereo in doubt) [Methylnaltrexone bromide, (3S,4S,4aS,7aR,12bS)-3-(cyclopropylmethyl)-4a,9-dihydroxy-3-methyl-7-oxo-2,3,4,4a,5,6,7,7a-octahydro-1H-4,12-methanobenzofuro[3,2-e]isoquinolin-3-ium]	Negative
CN1[C@H]2CC[C@@H]1[C@@H](C(=O)OCCF)[C@@H](c1ccc(I)cc1)C2 [2-FE-beta-CIT, (1R,2S,3S,5S)-2-fluoroethyl-3-(4-iodophenyl)-8-methyl-8-azabicyclo[3.2.1]octane-2-carboxylate]	Positive
CNc1ccc(-c2nc3ccc(O)cc3s2)cc1 [6-OH-BTA-1 (PiB), 2-(4-(Methylamino)phenyl)benzo[d]thiazol-6-ol]	Positive
CNc1ccc(-c2nc3ccc(O)cc3s2)cc1 [6-meO-BTA-0, 2-(4-(Methylamino)phenyl)benzo[d]thiazol-6-ol]	Negative
Cc1c2oc3c(C)ccc(C(=O)N[C@@H]4C(=O)N[C@H](C(C)C)C(=O)N5CCC[C@H]5C(=O)N(C)CC(=O)N(C)[C@@H](C(C)C)C(=O)O[C@@H]4C)c3nc-2c(C(=O)N[C@@H]2C(=O)N[C@H](C(C)C)C(=O)N3CCC[C@H]3C(=O)N(C)CC(=O)N(C)[C@@H](C(C)C)C(=O)O[C@@H]2C)c(N)c1=O [Actinomycin D] (I: T[dV]P[Sar][NMeV] / II: T[dV]P[Sar][NMeV]; ester I:1-I:C, II:1-II:C; linker I:N-II:N via Actinocin(9to1))	Efflux transporter substrate
O=C(c1ccc(F)cc1)C1CCN(CCn2c(=S)[nH]c3ccccc3c2=O)CC1 [Altanserin, 3-[2-[4-(4-fluorobenzoyl)piperidin-1-yl]ethyl]-2-sulfanylidene-1H-quinazolin-4-one]	Positive
CN(C(=O)C(c1ccccc1)c1ccccc1)[C@H](CN1CC[C@H](O)C1)c1ccccc1 [Asimadoline, N-{(1S)-2-[(3S)-3-Hydroxy-1-pyrrolidinyl]-1-phenylethyl}-Nmethyl-2,2-diphenylacetamide]	Efflux transporter substrate
CCOC(=O)c1ncn2c1CN(C)C(=O)c1cc(N=[N+]=[N-])ccc1-2 [Azidomazenil, Ethyl-8-azido-5-methyl-6-oxo-4H-imidazo[1,5-a][1,4]benzodiazepine-3-carboxylate]	Positive
CCCC(=O)OC1CCN(C)CC1 [BMP, 1-methylpiperidin-4-yl butyrate]	Positive
C(=N\NC1=NCCN1)/c1c2ccccc2c(/C=N/NC2=NCCN2)c2ccccc12 [Bisantrene, N-[(E)-[10-[(E)-(4,5-dihydro-1H-imidazol-2-ylhydrazinylidene)methyl]anthracen-9-yl]methylideneamino]-4,5-dihydro-1H-imidazol-2-amine]	Efflux transporter substrate
COC(=O)[C@H]1[C@@H](c2ccc(I)cc2)C[C@@H]2CC[C@H]1N2CCF [CIT-FE, (1R,2S,3S,5S)-methyl 8-(2-fluoroethyl)-3-(4-iodophenyl)-8-azabicyclo[3.2.1]octane-2-carboxylate]	Positive
CCOc1nc2cccc(C(=O)O)c2n1Cc1ccc(-c2ccccc2-c2nnn[nH]2)cc1 [Candesartan, 1-((2'-(2H-tetrazol-5-yl)-[1,1'-biphenyl]-4-yl)methyl)-2-ethoxy-1H-benzo[d]imidazole-7-carboxylic acid]	Negative
CC(C)NCC(O)COc1cccc2[nH]c3ccccc3c12 (stereo not drawn) [Carazolol, 1-((9H-carbazol-4-yl)oxy)-3-(isopropylamino)propan-2-ol]	Positive
C[C@@](Cc1ccc(O)c(O)c1)(NN)C(=O)O [Carbidopa, (2S)-3-(3,4-Dihydroxyphenyl)-2-hydrazino-2-methylpropanoic acid]	Negative
